Experiments:
hSERT = target: T1, hSERT (Homo sapiens, UniProt P31645); experiment: hSERT membrane radioligand binding assay (3H-citalopram); settings: compound of Example 1 tested as TFA salt; read-out: SERT pKi (converted)
T1 construct: expressed in transfected cells; host or cells: HEK-293 derived cell line, stably transfected; membranes
Method: (§1) Membrane radioligand binding assays were used to measure competitive inhibition of labeled ligand (^3H-citalopram or ^3H-nisoxetine or ^3H-WIN35428) binding to membranes prepared from cells expressing the respective human recombinant transporter (hSERT or hNET or hDAT) in order to determine the pKi values of test compounds at the transporters.
(§2) Recombinant human embryonic kidney (HEK-293) derived cell lines stably transfected with hSERT or hNET, respectively, were grown in DMEM medium supplemented with 10% dialyzed FBS (for hSERT) or FBS (for hNET), 100 μg/ml penicillin, 100 μg/ml streptomycin, 2 mM L-glutamine and 250 μg/ml of the aminoglycoside antibiotic G418, in a 5% CO2 humidified incubator at 37° C. When cultures reached 80% confluence, the cells were washed thoroughly in PBS (without Ca^2+ and Mg^2+) and lifted with 5 mM EDTA in PBS. […] Protein concentration of the membrane suspension was determined using a Bio-Rad Bradford Protein Assay kit. […]
(§3) Following a 60 minute incubation at 22° C. […] Plates were dried overnight at room temperature, ˜45 μl of MicroScint™-20 (Perkin Elmer) added and bound radioactivity quantitated via liquid scintillation spectroscopy. Competitive inhibition curves and saturation isotherms were analyzed using GraphPad Prism Software package (GraphPad Software, Inc., San Diego, CA). […]

hNET = target: T2, hNET (Homo sapiens, UniProt P23975); experiment: hNET membrane radioligand binding assay (3H-nisoxetine); settings: compound of Example 1 tested as TFA salt; read-out: NET pKi (converted)
T2 construct: expressed in transfected cells; host or cells: HEK-293 derived cell line, stably transfected; membranes
T2 sequence (P23975 whole entry): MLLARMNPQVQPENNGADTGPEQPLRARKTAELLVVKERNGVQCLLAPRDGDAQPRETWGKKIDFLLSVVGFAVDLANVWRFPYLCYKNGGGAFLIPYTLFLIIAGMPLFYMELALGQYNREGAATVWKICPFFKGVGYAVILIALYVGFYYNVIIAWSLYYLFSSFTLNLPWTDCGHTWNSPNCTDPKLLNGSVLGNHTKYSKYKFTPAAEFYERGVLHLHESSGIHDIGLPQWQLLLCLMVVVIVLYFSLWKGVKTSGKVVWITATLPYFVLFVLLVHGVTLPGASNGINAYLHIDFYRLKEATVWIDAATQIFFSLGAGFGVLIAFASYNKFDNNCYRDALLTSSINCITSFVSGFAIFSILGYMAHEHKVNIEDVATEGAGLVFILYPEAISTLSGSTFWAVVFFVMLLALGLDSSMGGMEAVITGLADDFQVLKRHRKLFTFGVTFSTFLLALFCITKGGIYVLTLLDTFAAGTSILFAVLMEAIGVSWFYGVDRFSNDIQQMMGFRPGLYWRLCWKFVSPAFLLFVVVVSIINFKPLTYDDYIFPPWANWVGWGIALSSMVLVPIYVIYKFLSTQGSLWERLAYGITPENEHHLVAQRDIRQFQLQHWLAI
Method: as §1, §2, §3

[1] = Thermal analysis by differential scanning calorimetry (DSC); format: physicochemical; settings: heating ramp 10° C./min from 22° C. to 250° C.
Method: Differential scanning calorimetry (DSC) was performed using a TA Instruments Model Q-100 module with a Thermal Analyst controller. Data were collected and analyzed using TA Instruments Thermal Solutions software. A 2.8 mg sample of the crystalline hydrochloride salt of Example 2 was accurately weighed into a covered aluminum pan. After a 5 minute isothermal equilibration period at 22° C., the sample was heated using a linear heating ramp of 10° C./min from 22° C. to 250° C.

T1 sequence (P31645 whole entry): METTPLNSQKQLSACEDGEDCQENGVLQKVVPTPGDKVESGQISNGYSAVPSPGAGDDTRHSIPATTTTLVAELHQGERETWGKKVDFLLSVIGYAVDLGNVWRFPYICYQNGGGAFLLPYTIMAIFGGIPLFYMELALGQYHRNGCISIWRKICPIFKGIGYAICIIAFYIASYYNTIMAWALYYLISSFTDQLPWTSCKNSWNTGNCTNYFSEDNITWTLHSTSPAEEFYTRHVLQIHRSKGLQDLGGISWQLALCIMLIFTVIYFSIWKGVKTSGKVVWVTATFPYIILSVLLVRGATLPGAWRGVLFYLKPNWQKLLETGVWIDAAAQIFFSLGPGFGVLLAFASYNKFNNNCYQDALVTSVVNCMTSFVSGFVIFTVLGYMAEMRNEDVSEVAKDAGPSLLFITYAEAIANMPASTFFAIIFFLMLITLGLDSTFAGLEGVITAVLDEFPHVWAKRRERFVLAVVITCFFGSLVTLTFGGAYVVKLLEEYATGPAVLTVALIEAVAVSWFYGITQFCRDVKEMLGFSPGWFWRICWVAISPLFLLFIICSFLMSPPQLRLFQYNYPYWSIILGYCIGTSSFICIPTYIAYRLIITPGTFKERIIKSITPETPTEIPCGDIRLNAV

Ki (hSERT): ≤ 12.6 nM | Ki (hNET): ≤ 10 nM | thermal stability (thermal decomposition by DSC) [1]: no thermal decomposition below 200.0 °C
SMILES: Fc1cc(F)c(OCc2ccccc2C2CCNCC2)c(F)c1 [Example 1, 4-[2-(2,4,6-Trifluorophenoxymethyl)phenyl]piperidine]

— patent publication US12239638B2, “Crystalline form of a 4-[2-(2-fluorophenoxymethyl)phenyl]piperidine compound” (THERAVANCE BIOPHARMA R&D IP, LLC, priority 2008, dated 2025)
